Results from ChEMBL document CHEMBL1250481, “Isoxazole analogs of curcuminoids with highly potent multidrug-resistant antimycobacterial activity” (2010).
Values after ≈ are worked out from the molar mass of the structure shown.

Columns and labels:
Format in all cases: functional
[1] = test system: Mycobacterium tuberculosis; assay: Antimycobacterial activity against isoniazid, rifampin and ethambutol-resistant Mycobacterium tuberculosis M16 after 24 hrs by microtiter alamar blue assay; conditions: M16, 24 h
[2] = test system: Mycobacterium tuberculosis; assay: Antimycobacterial activity against isoniazid and rifampin -resistant Mycobacterium tuberculosis M27 after 24 hrs by microtiter alamar blue assay; conditions: M27, 24 h
[3] = test system: Mycobacterium tuberculosis; assay: Antimycobacterial activity against isoniazid, rifampin, ethambutol and streptomycin-resistant Mycobacterium tuberculosis M21 after 24 hrs by microtiter alamar blue assay; conditions: M21, 24 h
[4] = test system: Mycobacterium tuberculosis; assay: Antimycobacterial activity against isoniazid, rifampin and streptomycin-resistant Mycobacterium tuberculosis M3 after 24 hrs by microtiter alamar blue assay; conditions: M3, 24 h
[5] = test system: Mycobacterium tuberculosis; assay: Antimycobacterial activity against isoniazid and rifampin-resistant Mycobacterium tuberculosis M11 after 24 hrs by microtiter alamar blue assay; conditions: M11, 24 h
[6] = test system: Mycobacterium tuberculosis; assay: Antimycobacterial activity against isoniazid, rifampin and streptomycin-resistant Mycobacterium tuberculosis M5 after 24 hrs by microtiter alamar blue assay; conditions: M5, 24 h
[7] = test system: Mycobacterium tuberculosis; assay: Antimycobacterial activity against isoniazid, rifampin, ethambutol and streptomycin-resistant Mycobacterium tuberculosis M8 after 24 hrs by microtiter alamar blue assay; conditions: M8, 24 h
[8] = test system: Mycobacterium tuberculosis; assay: Antimycobacterial activity against isoniazid, rifampin, ethambutol, streptomycin, ofloxacin and ciprofloxacin-resistant Mycobacterium tuberculosis M46 after 24 hrs by microtiter alamar blue assay; conditions: M46, 24 h
[9] = test system: Mycobacterium tuberculosis; assay: Antimycobacterial activity against isoniazid, rifampin, ethambutol and streptomycin-resistant Mycobacterium tuberculosis M4 after 24 hrs by microtiter alamar blue assay; conditions: M4, 24 h
[10] = test system: Mycobacterium tuberculosis; assay: Antimycobacterial activity against isoniazid and rifampin -resistant Mycobacterium tuberculosis M22 after 24 hrs by microtiter alamar blue assay; conditions: M22, 24 h
[11] = test system: Mycobacterium tuberculosis; assay: Antimycobacterial activity against isoniazid, rifampin, ethambutol, streptomycin, ofloxacin and ciprofloxacin-resistant Mycobacterium tuberculosis M48 after 24 hrs by microtiter alamar blue assay; conditions: M48, 24 h
[12] = test system: Mycobacterium tuberculosis; assay: Antimycobacterial activity against isoniazid, rifampin, ethambutol, streptomycin, ofloxacin and ciprofloxacin-resistant Mycobacterium tuberculosis M53 after 24 hrs by microtiter alamar blue assay; conditions: M53, 24 h
[13] = test system: Mycobacterium tuberculosis; assay: Antimycobacterial activity against isoniazid and rifampin-resistant Mycobacterium tuberculosis M6 after 24 hrs by microtiter alamar blue assay; conditions: M6, 24 h

| Structure (SMILES) | MIC [1] | MIC [2] | MIC [3] | MIC [4] | MIC [5] | MIC [6] | MIC [7] | MIC [8] | MIC [9] | MIC [10] | MIC [11] | MIC [12] | MIC [13] |
| --- | --- | --- | --- | --- | --- | --- | --- | --- | --- | --- | --- | --- | --- |
| CCCCCOc1ccc(/C=C/c2cc(/C=C/c3ccc(O)c(OC)c3)no2)cc1OC | 1.56 mg/L (≈ 3.58 µM) | 1.56 mg/L (≈ 3.58 µM) | 6.25 mg/L (≈ 14.4 µM) | 1.56 mg/L (≈ 3.58 µM) | 6.25 mg/L (≈ 14.4 µM) | 1.56 mg/L (≈ 3.58 µM) | 6.25 mg/L (≈ 14.4 µM) | 1.56 mg/L (≈ 3.58 µM) | 1.56 mg/L (≈ 3.58 µM) | 6.25 mg/L (≈ 14.4 µM) | 3.12 mg/L (≈ 7.18 µM) | 3.12 mg/L (≈ 7.18 µM) | 3.12 mg/L (≈ 7.18 µM) |
| COc1cc(/C=C/c2cc(/C=C/c3ccc(OC)c(OC)c3)no2)ccc1O | 1.56 mg/L (≈ 4.11 µM) | 0.195 mg/L (≈ 0.514 µM) | 3.12 mg/L (≈ 8.24 µM) | 0.195 mg/L (≈ 0.514 µM) | 3.12 mg/L (≈ 8.24 µM) | 3.12 mg/L (≈ 8.24 µM) | 3.12 mg/L (≈ 8.24 µM) | 1.56 mg/L (≈ 4.11 µM) | 1.56 mg/L (≈ 4.11 µM) | 0.39 mg/L (≈ 1.03 µM) | 1.56 mg/L (≈ 4.11 µM) | 3.12 mg/L (≈ 8.24 µM) | 0.39 mg/L (≈ 1.03 µM) |
| COc1cc(/C=C/c2cc(/C=C/c3ccc(OC)c(OC)c3)on2)ccc1O | 12.5 mg/L (≈ 32.9 µM) | 0.78 mg/L (≈ 2.06 µM) | 12.5 mg/L (≈ 32.9 µM) | 0.78 mg/L (≈ 2.06 µM) | 12.5 mg/L (≈ 32.9 µM) | 12.5 mg/L (≈ 32.9 µM) | 12.5 mg/L (≈ 32.9 µM) | 6.25 mg/L (≈ 16.5 µM) | 6.25 mg/L (≈ 16.5 µM) | 1.56 mg/L (≈ 4.11 µM) | 12.5 mg/L (≈ 32.9 µM) | 12.5 mg/L (≈ 32.9 µM) | 1.56 mg/L (≈ 4.11 µM) |
| CCCCCOc1ccc(/C=C/c2cc(/C=C/c3ccc(O)c(OC)c3)on2)cc1OC | 1.25 mg/L (≈ 2.87 µM) | 0.39 mg/L (≈ 0.895 µM) | 3.12 mg/L (≈ 7.18 µM) | 0.39 mg/L (≈ 0.895 µM) | 3.12 mg/L (≈ 7.18 µM) | 1.56 mg/L (≈ 3.58 µM) | 3.12 mg/L (≈ 7.18 µM) | 1.56 mg/L (≈ 3.58 µM) | 1.56 mg/L (≈ 3.58 µM) | 0.78 mg/L (≈ 1.79 µM) | 3.12 mg/L (≈ 7.18 µM) | 3.12 mg/L (≈ 7.18 µM) | 0.78 mg/L (≈ 1.79 µM) |
